Measured values published in patent US10703765B2 (priority 2014, dated 2020).
Where a name gives a salt, the structure may show the parent alone.

target: human σ1 receptor (Homo sapiens, UniProt Q99720); experiment: biochemical; assay type: binding; set-up: μ and σ1 dual binding: key to the marks not given beside the values; details: not given
Sequence (Q99720 whole entry): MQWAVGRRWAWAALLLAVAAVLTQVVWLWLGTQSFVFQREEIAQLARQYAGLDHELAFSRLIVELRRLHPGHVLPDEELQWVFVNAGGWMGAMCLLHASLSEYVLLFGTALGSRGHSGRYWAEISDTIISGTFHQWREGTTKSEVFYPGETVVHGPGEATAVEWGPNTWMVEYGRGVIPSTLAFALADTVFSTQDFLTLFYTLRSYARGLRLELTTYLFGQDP

SMILES | Ki [µM] | μ and σ1 dual binding
CC1OC2(CCN(CCc3ccccc3)CC2)CN(c2ccc3c(c2)OCO3)C1=O (stereo not drawn) [Example 202, 4-(benzo[d][1,3]dioxol-5-yl)-2-methyl-9-phenethyl-1-oxa-4,9-diazaspiro[5.5]undecan-3-one hydrochloride] | < 0.5 | 
Nc1nc(CCN2CCC3(CC2)CN(Cc2ccc(C(F)(F)F)cn2)C(=O)C2(CC2)O3)cs1 [Example 308, 8-[2-(2-aminothiazol-4-yl)ethyl]-12-{[5-(trifluoromethyl)pyridin-2-yl]methyl}-4-oxa-8,12-diazadispiro[2.1.5.3]tridecan-13-one trihydrochloride] |  | ++
CC1OC2(CCN(CCc3cncc(C(F)(F)F)c3)CC2)CN(c2ccccc2)C1=O (stereo not drawn) [Example 112, 2-methyl-4-phenyl-9-(2-(5-(trifluoromethyl)pyridin-3-yl)ethyl)-1-oxa-4,9-diazaspiro[5.5]undecan-3-one hydrochloride] | < 0.5 | 
CNS(=O)(=O)c1cccc(CCN2CCC3(CC2)CN(c2ccccc2)C(=O)C(C)O3)c1 (stereo not drawn) [Example 93, N-methyl-3-(2-(2-methyl-3-oxo-4-phenyl-1-oxa-4,9-diazaspiro[5.5]undecan-9-yl)ethyl)benzenesulfonamide] | < 0.5 | 
COCCCC1OC2(CCN(CCc3ccccc3)CC2)CN(c2ccccc2F)C1=O (stereo not drawn) [Example 314, 4-(2-fluorophenyl)-2-(3-methoxypropyl)-9-phenethyl-1-oxa-4,9-diazaspiro[5.5]undecan-3-one hydrochloride] | < 0.5 | 
Cl.O=C1COC2(CCN(CCc3ccccc3O)CC2)CN1Cc1ccccn1 [Example 300, 9-(2-hydroxyphenethyl)-4-(pyridin-2-ylmethyl)-1-oxa-4,9-diazaspiro[5.5]undecan-3-one hydrochloride] |  | ++
CC1OC2(CCN(CCc3cccc(C#N)n3)CC2)CN(c2ccccc2)C1=O.Cl (stereo not drawn) [Example 123, 6-(2-(2-methyl-3-oxo-4-phenyl-1-oxa-4,9-diazaspiro[5.5]undecan-9-yl)ethyl)picolinonitrile hydrochloride] |  | ++
CC1OC2(CCN(CCCc3ccccc3)CC2)CN(c2ccccc2)C1=O (stereo not drawn) [Example 60, 2-methyl-4-phenyl-9-(3-phenylpropyl)-1-oxa-4,9-diazaspiro[5.5]undecan-3-one hydrochloride] | < 0.5 | 
CC1OC2(CCN(CCn3ccc4ccccc43)CC2)CN(c2ccccc2)C1=O (stereo not drawn) [Example 62, 9-(2-(1H-indol-1-yl)ethyl)-2-methyl-4-phenyl-1-oxa-4,9-diazaspiro[5.5]undecan-3-one hydrochloride] | < 0.1 | 
CC1OC2(CCN(CCc3cccc(C(F)(F)F)n3)CC2)CN(Cc2ccc(F)cn2)C1=O.Cl (stereo not drawn) [Example 49, 4-((5-fluoropyridin-2-yl)methyl)-2-methyl-9-(2-(6-(trifluoromethyl)pyridin-2-yl)ethyl)-1-oxa-4,9-diazaspiro[5.5]undecan-3-one hydrochloride] |  | ++
CC1OC2(CCN(CCc3ccccc3)CC2)CN(c2ccccn2)C1=O.Cl (stereo not drawn) [Example 196, 2-methyl-9-phenethyl-4-(pyridin-2-yl)-1-oxa-4,9-diazaspiro[5.5]undecan-3-one hydrochloride] |  | ++
CN(C)C(=O)CC1OC2(CCN(CCc3ccccc3)CC2)CN(c2ccccc2)C1=O.Cl (stereo not drawn) [Example 272, N,N-dimethyl-2-(3-oxo-9-phenethyl-4-phenyl-1-oxa-4,9-diazaspiro[5.5]undecan-2-yl)acetamide hydrochloride] |  | ++
COc1ccccc1CCN1CCC2(CC1)CN(c1ccccc1)C(=O)C(C)O2 (stereo not drawn) [Example 57, 9-(2-methoxyphenethyl)-2-methyl-4-phenyl-1-oxa-4,9-diazaspiro[5.5]undecan-3-one hydrochloride] | < 0.1 | 
CC1OC2(CCN(CCc3cccc(NS(C)(=O)=O)c3)CC2)CN(c2ccccc2)C1=O (stereo not drawn) [Example 256, N-(3-(2-(2-methyl-3-oxo-4-phenyl-1-oxa-4,9-diazaspiro[5.5]undecan-9-yl)ethyl)phenyl)methanesulfonamide] | < 0.5 | 

same assay, conditions: combined class from Ki-σ1 (human σ1 receptor, A1) and Ki-μ (human μ-opioid receptor, A2) radioligand binding

SMILES | μ and σ1 dual binding
CC(C)C1OC2(CCN(CCc3ccccc3OCCO)CC2)CN(c2ccccc2F)C1=O (stereo not drawn) [Example 281, 4-(2-fluorophenyl)-9-(2-(2-hydroxyethoxy)phenethyl)-2-isopropyl-1-oxa-4,9-diazaspiro[5.5]undecan-3-one] | ++
O=C1N(c2cccnc2C(F)(F)F)CC2(CCN(CCc3cc(F)ccc3F)CC2)OC12CC2 [Example 341, 8-(2,5-difluorophenethyl)-12-(2-(trifluoromethyl)pyridin-3-yl)-4-oxa-8,12-diazadispiro[2.1.5.3]tridecan-13-one] | ++
O=C1C(CO)OC2(CCN(CCc3ccccc3O)CC2)CN1c1ccccc1F (stereo not drawn) [Example 301, 4-(2-fluorophenyl)-2-(hydroxymethyl)-9-(2-hydroxyphenethyl)-1-oxa-4,9-diazaspiro[5.5]undecan-3-one] | ++
CC1OC2(CCN(CCc3cc(C#N)ccn3)CC2)CN(c2ccccc2)C1=O (stereo not drawn) [Example 41, 2-(2-(2-methyl-3-oxo-4-phenyl-1-oxa-4,9-diazaspiro[5.5]undecan-9-yl)ethyl)isonicotinonitrile] | ++

same assay, conditions: read-out: μ and σ1 dual binding

SMILES | Ki [µM]
CC1OC2(CCN(CCc3ccccc3)CC2)CN(c2ccccc2)C1=O (stereo not drawn) [Example 9, 2-methyl-9-phenethyl-4-phenyl-1-oxa-4,9-diazaspiro[5.5]undecan-3-one] | < 0.1
c1ccc(CCN2CCC3(CC2)CN(Cc2ccccc2)CCO3)cc1 [Example 324, 4-benzyl-9-phenethyl-1-oxa-4,9-diazaspiro[5.5]undecane dihydrochloride] | < 0.1
C[C@H]1OC2(CCN(CCc3ccccc3F)CC2)CN(c2cnccc2C(F)(F)F)C1=O [Example 127b, (R)-9-(2-fluorophenethyl)-2-methyl-4-(4-(trifluoromethyl)pyridin-3-yl)-1-oxa-4,9-diazaspiro[5.5]undecan-3-one hydrochloride] | < 0.1
CC1OC2(CCN(CCc3ncccc3F)CC2)CN(Cc2ccc(F)cn2)C1=O (stereo not drawn) [Example 47, 9-(2-(3-fluoropyridin-2-yl)ethyl)-4-((5-fluoropyridin-2-yl)methyl)-2-methyl-1-oxa-4,9-diazaspiro[5.5]undecan-3-one hydrochloride] | < 0.5
c1ccc(CCN2CCC3(CC2)CN(c2ccccc2)CCO3)cc1 [Example 317, 9-phenethyl-4-phenyl-1-oxa-4,9-diazaspiro[5.5]undecane] | < 0.5
O=C1COC2(CCN(CCc3ccccc3)CC2)CN1c1cccc(O)c1 [Example 288, 4-(3-hydroxyphenyl)-9-phenethyl-1-oxa-4,9-diazaspiro[5.5]undecan-3-one] | < 0.5
CC1OC2(CCN(CCc3ccccc3)CC2)CN(c2ccc(C(F)(F)F)nc2)C1=O (stereo not drawn) [Example 212, 2-methyl-9-phenethyl-4-(6-(trifluoromethyl)pyridin-3-yl)-1-oxa-4,9-diazaspiro[5.5]undecan-3-one hydrochloride] | > 0.5
CC(=O)Nc1cccc(CN2CC3(CCN(CCc4ccccc4)CC3)OCC2=O)c1 [Example 249, N-(3-((3-oxo-9-phenethyl-1-oxa-4,9-diazaspiro[5.5]undecan-4-yl)methyl)phenyl)acetamide hydrochloride] | > 0.5
CC(=O)Nc1cccc(CCN2CCC3(CC2)CN(c2ccccc2)C(=O)C(C)O3)c1 (stereo not drawn) [Example 243, N-(3-(2-(2-methyl-3-oxo-4-phenyl-1-oxa-4,9-diazaspiro[5.5]undecan-9-yl)ethyl)phenyl)acetamide] | < 0.5
CC(C)=C1OC2(CCN(CCc3ccccc3)CC2)CN(c2ccccc2F)C1=O [Example 85, 4-(2-fluorophenyl)-9-phenethyl-2-(propan-2-ylidene)-1-oxa-4,9-diazaspiro[5.5]undecan-3-one] | > 0.5
CC1OC2(CCN(CCc3ncccc3Cl)CC2)CN(Cc2ccc(C(F)(F)F)cn2)C1=O (stereo not drawn) [Example 45, 9-(2-(3-chloropyridin-2-yl)ethyl)-2-methyl-4-((5-(trifluoromethyl)pyridin-2-yl)methyl)-1-oxa-4,9-diazaspiro[5.5]undecan-3-one hydrochloride] | < 0.1
CC1OC2(CCN(CCc3ncccn3)CC2)CN(c2ccccc2)C1=O (stereo not drawn) [Example 26, 2-methyl-4-phenyl-9-(2-(pyrimidin-2-yl)ethyl)-1-oxa-4,9-diazaspiro[5.5]undecan-3-one hydrochloride] | > 0.5
CC1OC2(CCN(CCC(=O)Nc3ccccc3)CC2)CN(c2ccccc2)C1=O (stereo not drawn) [Example 144, 3-(2-methyl-3-oxo-4-phenyl-1-oxa-4,9-diazaspiro[5.5]undecan-9-yl)-N-phenylpropanamide hydrochloride] | < 0.5
COc1ccccc1CCN1CCC2(CC1)CN(Cc1ccccn1)CCO2 [Example 326, 9-(2-methoxyphenethyl)-4-(pyridin-2-ylmethyl)-1-oxa-4,9-diazaspiro[5.5]undecane] | < 0.5
CS(=O)(=O)Nc1cccc(CCN2CCC3(CC2)CN(c2ccccc2)C(=O)C2(CC2)O3)c1 [Example 260, N-[3-(2-{13-oxo-12-phenyl-4-oxa-8,12-diazadispiro[2.1.5.3]tridecan-8-yl}ethyl)phenyl]methanesulfonamide hydrochloride] | < 0.5
O=C1N(CCOC2CCCCO2)CC2(CCN(CCc3ccccc3)CC2)OC12CC2 (stereo not drawn) [Example 185, 12-(2-((tetrahydro-2H-pyran-2-yl)oxy)ethyl)-8-phenethyl-4-oxa-8,12-diazadispiro[2.1.5.3]tridecan-13-one] | > 0.5
CC1OC2(CCN(CCc3ncccc3Cl)CC2)CN(Cc2ccc(F)cn2)C1=O (stereo not drawn) [Example 46, 9-(2-(3-chloropyridin-2-yl)ethyl)-4-((5-fluoropyridin-2-yl)methyl)-2-methyl-1-oxa-4,9-diazaspiro[5.5]undecan-3-one hydrochloride] | < 0.5
CC1OC2(CCN(CCc3ccc(F)cc3)CC2)CN(c2ccccc2)C1=O (stereo not drawn) [Example 55, 9-(4-fluorophenethyl)-2-methyl-4-phenyl-1-oxa-4,9-diazaspiro[5.5]undecan-3-one hydrochloride] | < 0.1
